Molecular target: T1, Tyrosine-protein phosphatase non-receptor type 11 (Homo sapiens, UniProt Q06124)
T1 sequence (Q06124 whole entry): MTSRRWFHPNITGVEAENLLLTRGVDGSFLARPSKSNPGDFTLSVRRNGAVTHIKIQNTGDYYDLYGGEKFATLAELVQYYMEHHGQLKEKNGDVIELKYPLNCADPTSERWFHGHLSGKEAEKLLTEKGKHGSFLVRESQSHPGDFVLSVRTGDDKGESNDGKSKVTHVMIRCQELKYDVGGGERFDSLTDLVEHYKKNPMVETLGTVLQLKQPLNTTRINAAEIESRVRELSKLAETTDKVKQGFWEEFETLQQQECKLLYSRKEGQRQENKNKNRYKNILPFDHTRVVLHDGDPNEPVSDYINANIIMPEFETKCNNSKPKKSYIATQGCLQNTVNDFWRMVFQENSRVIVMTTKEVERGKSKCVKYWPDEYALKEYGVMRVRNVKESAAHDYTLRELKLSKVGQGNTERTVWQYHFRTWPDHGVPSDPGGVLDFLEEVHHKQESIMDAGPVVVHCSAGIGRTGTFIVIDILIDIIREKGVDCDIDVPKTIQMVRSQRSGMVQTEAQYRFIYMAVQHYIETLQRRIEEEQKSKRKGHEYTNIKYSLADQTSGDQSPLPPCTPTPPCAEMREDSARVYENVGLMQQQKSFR
Assay: Inhibition of SHP2 (unknown origin)
Conditions: not given; call rule not given here

Compound	IC50
O=C(OC1CSSC1)c1ccc(OCCOC(=O)c2cc(Br)ccc2Br)cc1	Not Active
O=C(OC1CSSC1)c1ccc(OCCCCCCOC(=O)c2cc(Br)ccc2Br)cc1	Not Active
COc1ccc(C(=O)OCCCCC#Cc2ccc(C(=O)OC3CSSC3)cc2)c(OC)c1	Not Active

Same assay, conditions: read-out: IC50

Compound	IC50 [µM]
COc1cccc(C(=O)OCCCCC#Cc2ccc(C(=O)OC3CSSC3)cc2)c1	34.6
COc1ccccc1C(=O)OCCCCC#Cc1ccc(C(=O)OC2CSSC2)cc1	18.3
O=C(OC1CSSC1)c1ccc(C#CCCCCOC(=O)c2cc(Br)ccc2Br)cc1	13.2
O=C(OCCCCC#Cc1ccc(C(=O)OC2CSSC2)cc1)c1ccc(F)cc1	9.41
O=C(OCCCCC#Cc1ccc(C(=O)OC2CSSC2)cc1)c1ccc([N+](=O)[O-])cc1	24.6

Species on record: Homo sapiens
Assay: Selectivity ratio of IC50 for TCPTP (unknown origin) to IC50 for PTP1B (unknown origin)
Conditions: not given

Compound	Ratio IC50
O=C(OC1CSSC1)c1ccc(C#CCCCCOC(=O)c2cc(Br)ccc2Br)cc1	3
COc1ccc(C(=O)OCCCCC#Cc2ccc(C(=O)OC3CSSC3)cc2)c(OC)c1	5

Molecular target: Tyrosine-protein phosphatase non-receptor type 6 (Homo sapiens, UniProt P29350)
Sequence (P29350 whole entry): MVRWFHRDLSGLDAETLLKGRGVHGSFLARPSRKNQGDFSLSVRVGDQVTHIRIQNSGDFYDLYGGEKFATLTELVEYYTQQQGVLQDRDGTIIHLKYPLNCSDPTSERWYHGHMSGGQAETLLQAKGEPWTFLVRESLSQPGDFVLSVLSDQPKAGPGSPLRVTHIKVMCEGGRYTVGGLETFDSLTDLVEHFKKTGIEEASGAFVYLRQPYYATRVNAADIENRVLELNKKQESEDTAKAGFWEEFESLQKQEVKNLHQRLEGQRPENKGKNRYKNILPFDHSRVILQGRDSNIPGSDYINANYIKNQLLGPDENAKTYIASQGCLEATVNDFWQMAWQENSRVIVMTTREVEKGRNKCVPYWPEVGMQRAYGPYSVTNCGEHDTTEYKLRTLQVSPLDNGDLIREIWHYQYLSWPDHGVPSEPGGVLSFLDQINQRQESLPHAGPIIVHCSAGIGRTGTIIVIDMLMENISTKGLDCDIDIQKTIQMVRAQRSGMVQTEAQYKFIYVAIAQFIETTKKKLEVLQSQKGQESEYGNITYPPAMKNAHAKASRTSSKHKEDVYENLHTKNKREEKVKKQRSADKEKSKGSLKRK
Assay: Inhibition of SHP1 (unknown origin)
Conditions: not given

Compound	IC50
O=C(OC1CSSC1)c1ccc(OCCOC(=O)c2cc(Br)ccc2Br)cc1	Not Active
O=C(OC1CSSC1)c1ccc(C#CCCCCOC(=O)c2cc(Br)ccc2Br)cc1	Not Active
O=C(OC1CSSC1)c1ccc(OCCCCCCOC(=O)c2cc(Br)ccc2Br)cc1	Not Active
COc1ccc(C(=O)OCCCCC#Cc2ccc(C(=O)OC3CSSC3)cc2)c(OC)c1	Not Active

Same assay, conditions: read-out: IC50

Compound	IC50 [µM]
COc1cccc(C(=O)OCCCCC#Cc2ccc(C(=O)OC3CSSC3)cc2)c1	38.4
COc1ccccc1C(=O)OCCCCC#Cc1ccc(C(=O)OC2CSSC2)cc1	19.3
O=C(OCCCCC#Cc1ccc(C(=O)OC2CSSC2)cc1)c1ccc(F)cc1	9.21
O=C(OCCCCC#Cc1ccc(C(=O)OC2CSSC2)cc1)c1ccc([N+](=O)[O-])cc1	24.9

Molecular target: Receptor-type tyrosine-protein phosphatase F (Homo sapiens, UniProt P10586)
Sequence (P10586 whole entry): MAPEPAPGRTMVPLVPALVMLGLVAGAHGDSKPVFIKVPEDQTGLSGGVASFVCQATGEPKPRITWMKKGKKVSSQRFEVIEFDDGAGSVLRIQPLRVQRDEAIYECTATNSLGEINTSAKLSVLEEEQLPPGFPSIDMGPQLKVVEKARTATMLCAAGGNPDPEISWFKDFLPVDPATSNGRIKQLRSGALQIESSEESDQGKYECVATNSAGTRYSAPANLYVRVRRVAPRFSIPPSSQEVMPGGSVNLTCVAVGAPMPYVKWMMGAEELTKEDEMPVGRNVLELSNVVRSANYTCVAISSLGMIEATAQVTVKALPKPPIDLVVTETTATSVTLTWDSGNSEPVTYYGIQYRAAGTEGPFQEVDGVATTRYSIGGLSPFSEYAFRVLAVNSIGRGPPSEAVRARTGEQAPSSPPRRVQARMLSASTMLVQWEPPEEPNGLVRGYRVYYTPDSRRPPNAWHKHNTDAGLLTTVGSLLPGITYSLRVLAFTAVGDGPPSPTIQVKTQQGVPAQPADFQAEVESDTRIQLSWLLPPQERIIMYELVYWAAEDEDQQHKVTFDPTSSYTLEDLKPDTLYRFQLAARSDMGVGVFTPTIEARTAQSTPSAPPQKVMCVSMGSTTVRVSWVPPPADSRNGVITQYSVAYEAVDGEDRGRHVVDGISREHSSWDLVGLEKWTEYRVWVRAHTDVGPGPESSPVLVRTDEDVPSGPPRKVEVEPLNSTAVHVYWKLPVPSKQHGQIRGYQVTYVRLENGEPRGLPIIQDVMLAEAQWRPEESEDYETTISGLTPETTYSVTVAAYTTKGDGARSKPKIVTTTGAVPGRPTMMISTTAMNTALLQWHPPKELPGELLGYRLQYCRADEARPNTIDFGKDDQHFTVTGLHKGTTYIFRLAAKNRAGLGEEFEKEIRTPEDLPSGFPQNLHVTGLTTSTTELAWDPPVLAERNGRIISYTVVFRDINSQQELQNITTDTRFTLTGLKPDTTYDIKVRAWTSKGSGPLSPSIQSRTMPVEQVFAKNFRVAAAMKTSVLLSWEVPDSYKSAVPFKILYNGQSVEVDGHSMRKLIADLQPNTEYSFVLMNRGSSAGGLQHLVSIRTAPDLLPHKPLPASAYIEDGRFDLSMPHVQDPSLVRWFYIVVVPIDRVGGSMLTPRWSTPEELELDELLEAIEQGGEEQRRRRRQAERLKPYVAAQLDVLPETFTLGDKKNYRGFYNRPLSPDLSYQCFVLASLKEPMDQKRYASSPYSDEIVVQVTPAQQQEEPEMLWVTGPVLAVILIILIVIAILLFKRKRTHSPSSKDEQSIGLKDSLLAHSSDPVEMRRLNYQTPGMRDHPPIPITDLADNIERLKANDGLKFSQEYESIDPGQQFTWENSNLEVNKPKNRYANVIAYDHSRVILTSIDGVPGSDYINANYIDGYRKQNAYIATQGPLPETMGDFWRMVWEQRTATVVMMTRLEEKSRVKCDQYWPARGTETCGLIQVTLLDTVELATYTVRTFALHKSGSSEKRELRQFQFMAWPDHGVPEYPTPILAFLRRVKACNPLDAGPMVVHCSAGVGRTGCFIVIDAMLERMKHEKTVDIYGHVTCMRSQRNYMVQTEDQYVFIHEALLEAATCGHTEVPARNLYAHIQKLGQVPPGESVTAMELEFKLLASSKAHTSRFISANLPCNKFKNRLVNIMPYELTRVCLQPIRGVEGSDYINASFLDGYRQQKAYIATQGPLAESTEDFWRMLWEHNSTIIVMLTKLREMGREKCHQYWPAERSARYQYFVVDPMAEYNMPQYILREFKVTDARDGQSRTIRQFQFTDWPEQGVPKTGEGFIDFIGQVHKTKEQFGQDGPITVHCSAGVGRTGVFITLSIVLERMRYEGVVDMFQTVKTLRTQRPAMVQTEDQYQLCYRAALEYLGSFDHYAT
Assay: Inhibition of LAR (unknown origin)
Conditions: not given

Compound	IC50
COc1cccc(C(=O)OCCCCC#Cc2ccc(C(=O)OC3CSSC3)cc2)c1	Not Active
O=C(OC1CSSC1)c1ccc(OCCOC(=O)c2cc(Br)ccc2Br)cc1	Not Active
COc1ccccc1C(=O)OCCCCC#Cc1ccc(C(=O)OC2CSSC2)cc1	Not Active
O=C(OC1CSSC1)c1ccc(C#CCCCCOC(=O)c2cc(Br)ccc2Br)cc1	Not Active
O=C(OCCCCC#Cc1ccc(C(=O)OC2CSSC2)cc1)c1ccc(F)cc1	Not Active
O=C(OCCCCC#Cc1ccc(C(=O)OC2CSSC2)cc1)c1ccc([N+](=O)[O-])cc1	Not Active
O=C(OC1CSSC1)c1ccc(OCCCCCCOC(=O)c2cc(Br)ccc2Br)cc1	Not Active
COc1ccc(C(=O)OCCCCC#Cc2ccc(C(=O)OC3CSSC3)cc2)c(OC)c1	Not Active

Molecular target: T2, Tyrosine-protein phosphatase non-receptor type 1 (Homo sapiens, UniProt P18031)
T2 sequence (P18031 whole entry): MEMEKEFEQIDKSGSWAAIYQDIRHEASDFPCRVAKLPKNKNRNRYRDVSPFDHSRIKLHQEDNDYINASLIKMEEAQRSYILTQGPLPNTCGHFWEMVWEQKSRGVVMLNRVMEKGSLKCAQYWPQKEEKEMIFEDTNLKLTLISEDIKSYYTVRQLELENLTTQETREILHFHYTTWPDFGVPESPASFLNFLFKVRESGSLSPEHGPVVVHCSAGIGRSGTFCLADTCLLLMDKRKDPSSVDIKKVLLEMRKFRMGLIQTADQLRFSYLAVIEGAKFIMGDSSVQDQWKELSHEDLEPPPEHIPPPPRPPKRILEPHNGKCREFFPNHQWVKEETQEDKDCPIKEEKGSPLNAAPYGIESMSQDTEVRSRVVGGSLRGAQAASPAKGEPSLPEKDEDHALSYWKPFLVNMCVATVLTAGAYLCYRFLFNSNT
Assay: Inhibition of PTP1B (unknown origin)
Conditions: read-out: IC50

Compound	IC50 [µM]
COc1cccc(C(=O)OCCCCC#Cc2ccc(C(=O)OC3CSSC3)cc2)c1	26.3
O=C(OC1CSSC1)c1ccc(OCCOC(=O)c2cc(Br)ccc2Br)cc1	7.26
COc1ccccc1C(=O)OCCCCC#Cc1ccc(C(=O)OC2CSSC2)cc1	23.5
O=C(OC1CSSC1)c1ccc(C#CCCCCOC(=O)c2cc(Br)ccc2Br)cc1	0.59
O=C(OCCCCC#Cc1ccc(C(=O)OC2CSSC2)cc1)c1ccc(F)cc1	4.68
O=C(OCCCCC#Cc1ccc(C(=O)OC2CSSC2)cc1)c1ccc([N+](=O)[O-])cc1	10.1
O=C(OC1CSSC1)c1ccc(OCCCCCCOC(=O)c2cc(Br)ccc2Br)cc1	8.85
COc1ccc(C(=O)OCCCCC#Cc2ccc(C(=O)OC3CSSC3)cc2)c(OC)c1	4.27

Molecular target: T3, Tyrosine-protein phosphatase non-receptor type 2 (Homo sapiens, UniProt P17706)
T3 sequence (P17706 whole entry): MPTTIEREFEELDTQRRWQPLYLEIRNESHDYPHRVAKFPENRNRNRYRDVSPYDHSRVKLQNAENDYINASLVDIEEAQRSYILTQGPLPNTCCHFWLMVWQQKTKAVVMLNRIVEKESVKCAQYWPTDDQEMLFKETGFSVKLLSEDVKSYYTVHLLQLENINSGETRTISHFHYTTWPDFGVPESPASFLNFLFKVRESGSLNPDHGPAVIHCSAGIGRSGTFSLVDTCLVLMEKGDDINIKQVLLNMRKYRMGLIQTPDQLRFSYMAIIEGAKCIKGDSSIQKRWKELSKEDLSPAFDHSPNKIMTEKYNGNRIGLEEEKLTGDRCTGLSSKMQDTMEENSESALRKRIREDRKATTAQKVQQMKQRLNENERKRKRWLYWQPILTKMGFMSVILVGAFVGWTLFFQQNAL
Assay: Inhibition of TCPTP (unknown origin)
Conditions: not given

Compound	IC50 [µM]
COc1cccc(C(=O)OCCCCC#Cc2ccc(C(=O)OC3CSSC3)cc2)c1	26.3
O=C(OC1CSSC1)c1ccc(OCCOC(=O)c2cc(Br)ccc2Br)cc1	35
COc1ccccc1C(=O)OCCCCC#Cc1ccc(C(=O)OC2CSSC2)cc1	23.2
O=C(OC1CSSC1)c1ccc(C#CCCCCOC(=O)c2cc(Br)ccc2Br)cc1	1.88
O=C(OCCCCC#Cc1ccc(C(=O)OC2CSSC2)cc1)c1ccc(F)cc1	4.36
O=C(OCCCCC#Cc1ccc(C(=O)OC2CSSC2)cc1)c1ccc([N+](=O)[O-])cc1	9.46
O=C(OC1CSSC1)c1ccc(OCCCCCCOC(=O)c2cc(Br)ccc2Br)cc1	30.8
COc1ccc(C(=O)OCCCCC#Cc2ccc(C(=O)OC3CSSC3)cc2)c(OC)c1	20
